Reference: the supplement of paper PMC10307832

Experiments:
Experiment in all cases: relative viability (nuclei count vs DMSO), 5 days (fraction); higher = more cells survive
Bexarotene + Foretinib = compound: C=C(c1ccc(C(=O)O)cc1)c1cc2c(cc1C)C(C)(C)CCC2(C)C [Bexarotene] + COc1cc2c(Oc3ccc(NC(=O)C4(C(=O)Nc5ccc(F)cc5)CC4)cc3F)ccnc2cc1OCCCN1CCOCC1 [Foretinib] (partner 0.25 µM)
Procedure, shortened: (§1)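 For relative viability, nuclei counts in treated wells were divided by those in vehicle wells. Lung cancer cell lines had been pin-tool dosed in 1536-well plates the day after seeding and cultured for 5 days, then fixed and stained in one step (final 0.05% Triton X-100, 1% formaldehyde, 1 ug/ml Hoechst) and imaged at 4×. Doses were one drug alone or a fixed anchor-drug dose plus five library-drug doses (not always all listed) in √10 steps, and values are duplicate-plate medians.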

Bexarotene + Tozasertib = compound: C=C(c1ccc(C(=O)O)cc1)c1cc2c(cc1C)C(C)(C)CCC2(C)C [Bexarotene] + Cc1cc(Nc2cc(N3CCN(C)CC3)nc(Sc3ccc(NC(=O)C4CC4)cc3)n2)n[nH]1 [Tozasertib] (partner 0.1 µM)
Procedure, shortened: as §1

Bexarotene + AZD7762 = compound: C=C(c1ccc(C(=O)O)cc1)c1cc2c(cc1C)C(C)(C)CCC2(C)C [Bexarotene] + NC(=O)Nc1cc(-c2cccc(F)c2)sc1C(=O)N[C@H]1CCCNC1 [AZD7762] (partner 0.2 µM)
Procedure, shortened: as §1

Bexarotene + Luminespib = compound: C=C(c1ccc(C(=O)O)cc1)c1cc2c(cc1C)C(C)(C)CCC2(C)C [Bexarotene] + CCNC(=O)c1noc(-c2cc(C(C)C)c(O)cc2O)c1-c1ccc(CN2CCOCC2)cc1 [Luminespib] (partner 0.01 µM)
Procedure, shortened: as §1

Cell Line	relative viability (Bexarotene + Foretinib; first compound 0.08 µM)	relative viability (Bexarotene + Foretinib; first compound 0.253 µM)	relative viability (Bexarotene + Foretinib; first compound 0.8 µM)	relative viability (Bexarotene + Foretinib; first compound 2.53 µM)	relative viability (Bexarotene + Foretinib; first compound 8 µM)	relative viability (Bexarotene + Tozasertib; first compound 0.08 µM)	relative viability (Bexarotene + Tozasertib; first compound 0.253 µM)	relative viability (Bexarotene + Tozasertib; first compound 0.8 µM)	relative viability (Bexarotene + Tozasertib; first compound 2.53 µM)	relative viability (Bexarotene + Tozasertib; first compound 8 µM)	relative viability (Bexarotene + AZD7762; first compound 0.08 µM)	relative viability (Bexarotene + AZD7762; first compound 0.253 µM)	relative viability (Bexarotene + AZD7762; first compound 0.8 µM)	relative viability (Bexarotene + AZD7762; first compound 2.53 µM)	relative viability (Bexarotene + AZD7762; first compound 8 µM)	relative viability (Bexarotene + Luminespib; first compound 0.08 µM)	relative viability (Bexarotene + Luminespib; first compound 0.253 µM)	relative viability (Bexarotene + Luminespib; first compound 0.8 µM)	relative viability (Bexarotene + Luminespib; first compound 2.53 µM)	relative viability (Bexarotene + Luminespib; first compound 8 µM)
NCI-H647	1.32	1.42	1.4	1.32	1.04	0.351	0.432	0.257	0.279	0.324	0.429	0.463	0.459	0.272	0.33	0.148	0.176	0.211	0.134	0.11
NCI-H650	0.974	0.995	0.958	0.991	0.996	0.747	0.724	0.721	0.789	0.687	1.13	0.986	1.17	0.709	1.05	0.779	0.828	0.877	0.898	0.742
NCI-H727	1.09	1.12	0.875	0.859	0.808	0.622	0.584	0.76	0.64	0.618	0.537	0.635	0.598	0.617	0.633	0.392	0.685	0.325	0.322	0.372
NCI-H838	1.14	1.03	1.06	1.05	1.01	0.269	0.301	0.267	0.278	0.271	1.03	1.09	0.989	0.978	0.938	0.368	0.377	0.269	0.329	0.321
NCI-H1355	1	1.09	0.91	1.05	0.947	0.492	0.531	0.54	0.492	0.512	0.868	0.841	0.671	0.9	0.682	0.831	0.714	0.668	0.631	0.716
NCI-H1395	1.07	1.02	1.04	0.949	1.09	0.754	0.77	0.746	0.687	0.799	0.399	0.432	0.39	0.407	0.39	0.806	0.631	0.687	0.663	0.749
NCI-H1437	1.26	1.32	1.22	1.23	1.26	0.382	0.395	0.396	0.421	0.382	1.2	1.14	1.19	1.14	1.15	1.05	1.07	1.15	1.07	1.1
NCI-H1651	0.86	0.98	0.805	0.933	0.84	0.929	0.64	0.741	0.594	0.791	0.544	0.491	0.525	0.454	0.549	1.06	0.881	0.938	0.845	0.911
NCI-H1666	0.974	0.937	0.85	0.867	0.833	0.658	0.611	0.52	0.558	0.668	1.02	0.839	0.82	0.817	0.895	0.922	0.978	0.916	0.907	0.816
NCI-H1734	0.913	0.799	0.928	0.822	0.769	0.281	0.244	0.26	0.285	0.257	0.552	0.536	0.522	0.488	0.526	0.2	0.182	0.177	0.172	0.195
NCI-H1755	0.934	0.953	0.885	0.937	0.852	0.624	0.607	0.637	0.638	0.622	0.536	0.6	0.439	0.569	0.54	0.391	0.504	0.679	0.52	0.438
NCI-H1793	0.732	0.813	0.763	0.629	0.676	0.308	0.319	0.394	0.287	0.337	0.442	0.68	0.511	0.505	0.504	0.2	0.152	0.164	0.15	0.335
NCI-H1915	1.19	1.13	1.1	1.06	1.07	0.465	0.492	0.425	0.339	0.376	0.707	0.724	0.674	0.653	0.655	0.805	0.742	0.748	0.714	0.724
NCI-H1944	1.25	1.09	1.04	1.16	0.965	0.323	0.29	0.307	0.299	0.257	0.738	0.733	0.749	0.694	0.739	1.45	0.977	0.959	1.11	0.875
NCI-H1975	1.11	0.983	1.12	1.04	1.05	0.809	0.875	0.846	0.73	0.879	0.676	0.775	0.672	0.666	0.668	0.171	0.159	0.201	0.154	0.215
NCI-H1993	0.807	0.732	0.768	0.725	0.766	0.544	0.576	0.604	0.527	0.613	0.805	0.83	0.618	0.851	0.636	1.09	0.783	0.792	0.859	0.815
